Experimental findings from patent US11090304B2 (Amgen Inc., priority 2018, dated 2021) are described below.

Where two headings read alike, the source gives them in different places.

Experiment [1] deals with GDP-bound KRAS protein (aa 1-169), containing both G12C and C118A amino acid substitutions (Homo sapiens, UniProt P01116, C118A/G12C). Briefly: Coupled nucleotide exchange assay (SOS-mediated, AlphaScreen). Type of experiment: biochemical. The conditions noted are these: 5 min compound pre-incubation.
In experiment [2] the test system is Phosphorylation of ERK1/2 in MIA PaCa-2 cells. In words: Phospho-ERK1/2 MSD assay in MIA PaCa-2 cells. The class given is cell-based. The conditions noted are these: read-out: p-ERK IC50 (2 h; MIA PaCa-2), 2 h compound treatment. A digest of the protocol:
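In the procedure, cells were plated a day ahead at 25,000 per well. Next, a dilution series of compound in growth medium was added for 2 or 4 h. EGF (10 ng/mL) stimulation for 10 min preceded washing and RIPA lysis. Lysate phospho-ERK1/2 was read by MSD, with IC50 derived by 4-parameter logistic analysis.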

Chain of GDP-bound KRAS protein (aa 1-169), containing both G12C and C118A amino acid substitutions (P01116 1-169 isoform P01116-2 G12C/C118A): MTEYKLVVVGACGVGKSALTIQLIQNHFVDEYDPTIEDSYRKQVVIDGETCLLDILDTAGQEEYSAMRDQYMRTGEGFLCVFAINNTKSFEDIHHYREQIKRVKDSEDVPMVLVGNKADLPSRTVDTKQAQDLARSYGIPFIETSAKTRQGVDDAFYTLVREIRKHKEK

`C=CC(=O)N1CCN(c2nc(=O)n(-c3ccccc3C(C)C)c3nc(-c4c(O)cccc4F)c(F)cc23)[C@@H](C)C1` (single isomer, unassigned) [Example 57-6-1]: the “Coupled exchange IC50 (5 min)” value in experiment [1] is recorded as 3.163 | nda μM. Moreover, in experiment [2], the IC50 turned out to be 2090 nM.

For the compound `C=CC(=O)N1CCN(c2nc(=O)n(-c3ccccc3C(C)C)c3nc(-c4ccccc4Cl)c(F)cc23)[C@@H](C)C1` (single isomer, unassigned) [Example 57-8-2], the “Coupled exchange IC50 (5 min)” value in experiment [1] is 0.514 | nda μM. Also, the IC50 in experiment [2] (Homo sapiens, MIA PaCa-2, 2 h) stood at 166 nM.

Regarding `C=CC(=O)N1CCN(c2nc(=O)n(-c3c(C)cccc3CC)c3nc(-c4c(O)cccc4F)c(F)cc23)[C@@H](C)C1` (single isomer, unassigned) [Example 57-14-1], the “Coupled exchange IC50 (5 min)” value in experiment [1] is 0.288 | nda μM. The IC50 in experiment [2] (Homo sapiens, MIA PaCa-2, 2 h) came to 348 nM.

Turning to `C=CC(=O)N1CCN(c2nc(=O)n(-c3c(Cl)cccc3C(C)C)c3nc(-c4c(O)cccc4F)c(F)cc23)[C@@H](C)C1` (single isomer, unassigned) [Example 57-15-1], the “Coupled exchange IC50 (5 min)” value in experiment [1] was 0.089 | nda μM. Besides, the IC50 in experiment [2] came out at 104 nM.

For the compound `C=CC(=O)N1CCN(c2nc(=O)n(-c3c(Cl)cccc3C(C)C)c3nc(-c4c(O)cccc4F)c(F)cc23)[C@@H](C)C1` (single isomer, unassigned) [Example 57-15-2], the “Coupled exchange IC50 (5 min)” value in experiment [1] is 0.841 | nda μM. The IC50 in experiment [2] is 984 nM.

For the compound `C=CC(=O)N1CCN(c2nc(=O)n(-c3c(C)cccc3C(C)(C)C)c3nc(-c4c(O)cccc4F)c(F)cc23)[C@@H](C)C1` (single isomer, unassigned) [Example 57-17-1], in experiment [1], the “Coupled exchange IC50 (5 min)” value was 0.316 | nda μM. Further, the IC50 in experiment [2] (Homo sapiens, MIA PaCa-2, 2 h) came out at 300 nM.

As to `C=CC(=O)N1CCN(c2nc(=O)n(-c3ccccc3C(C)(C)C)c3nc(-c4c(O)cccc4F)c(F)cc23)[C@@H](C)C1` (single isomer, unassigned) [Example 58-1-2], in experiment [1], the “Coupled exchange IC50 (5 min)” value is recorded as 0.572 | nda μM. For the same compound, the IC50 in experiment [2] (Homo sapiens, MIA PaCa-2, 2 h) is 570 nM.

With `C=CC(=O)N1CCN(c2nc(=O)n(-c3c(C(F)(F)F)ccnc3C(C)C)c3nc(-c4c(O)cccc4F)c(F)cc23)[C@@H](C)C1` (single isomer, unassigned) [Example 58-3-1], the “Coupled exchange IC50 (5 min)” value in experiment [1] is on record as 0.097 | nda μM. Also, in experiment [2], the IC50 amounted to 144 nM.

As to `C=CC(=O)N1CCN(c2nc(=O)n(-c3c(C(F)(F)F)ccnc3C(C)C)c3nc(-c4c(O)cccc4F)c(F)cc23)[C@@H](C)C1` (single isomer, unassigned) [Example 58-3-2], the “Coupled exchange IC50 (5 min)” value in experiment [1] is listed as 0.485 | nda μM. Also, in experiment [2], the half-inhibitory concentration (IC50) was determined as 867 nM.

Take `C=CC(=O)N1CCN(c2nc(=O)n(-c3c(C)ccnc3C(C)C)c3nc(-c4ccccc4F)c(F)cc23)[C@@H](C)C1` (single isomer, unassigned) [Example 58-4-1]: the “Coupled exchange IC50 (5 min)” value in experiment [1] was 0.212 | nda μM. Also, the IC50 in experiment [2] (Homo sapiens, MIA PaCa-2, 2 h) came out at 114 nM.

On to `C=CC(=O)N1CCN(c2nc(=O)n(-c3c(C)ccnc3C(C)C)c3nc(-c4cc(O)ccc4F)c(F)cc23)[C@@H](C)C1` (single isomer, unassigned) [Example 58-5-2], for which the “Coupled exchange IC50 (5 min)” value in experiment [1] is 0.216 | nda μM. The IC50 in experiment [2] (Homo sapiens, MIA PaCa-2, 2 h) stood at 743 nM.

`C=CC(=O)N1CCN(c2nc(=O)n(-c3c(C)ccnc3C(C)C)c3nc(-c4cc(N)ccc4F)c(F)cc23)[C@@H](C)C1` (single isomer, unassigned) [Example 58-6-2]: the “Coupled exchange IC50 (5 min)” value in experiment [1] is given as 0.236 | nda μM. In addition, the IC50 in experiment [2] (Homo sapiens, MIA PaCa-2, 2 h) came out at 367 nM.

Consider `C=CC(=O)N1CCN(c2nc(=O)n(-c3c(C)ccnc3C(C)C)c3nc(-c4cc(O)cc(Cl)c4Cl)c(F)cc23)[C@@H](C)C1` (single isomer, unassigned) [Example 58-7-1], for which the “Coupled exchange IC50 (5 min)” value in experiment [1] was 0.335 | nda μM. The IC50 in experiment [2] turned out to be 1840 nM.

With `C=CC(=O)N1CCN(c2nc(=O)n(-c3c(C)ccnc3C(C)C)c3nc(-c4cc(O)cc(Cl)c4Cl)c(F)cc23)[C@@H](C)C1` (single isomer, unassigned) [Example 58-7-2], the “Coupled exchange IC50 (5 min)” value in experiment [1] is listed as 0.041 | nda μM. Also, the IC50 in experiment [2] was found to be 515 nM.

Regarding `C=CC(=O)N1CCN(c2nc(=O)n(-c3c(C)ccnc3C(C)C)c3nc(-c4cc(N)ccc4Cl)c(F)cc23)[C@@H](C)C1` (single isomer, unassigned) [Example 58-8-1], the “Coupled exchange IC50 (5 min)” value in experiment [1] is 0.213 | nda μM. Further, in experiment [2] (Homo sapiens, MIA PaCa-2, 2 h), the IC50 amounted to 180 nM.

As for `C=CC(=O)N1CCN(c2nc(=O)n(-c3c(C)ccnc3C(C)C)c3nc(-c4c(O)cccc4Cl)c(F)cc23)[C@@H](C)C1` (single isomer, unassigned) [Example 58-9-1], in experiment [1], the “Coupled exchange IC50 (5 min)” value was 0.046 | nda μM. Also, the IC50 in experiment [2] is 47 nM.

In the case of `C=CC(=O)N1CCN(c2nc(=O)n(-c3c(C)ccnc3C(C)C)c3nc(-c4c(O)cccc4Cl)c(F)cc23)[C@@H](C)C1` (single isomer, unassigned) [Example 58-9-2], the “Coupled exchange IC50 (5 min)” value in experiment [1] is 0.349 | nda μM. Moreover, the IC50 in experiment [2] is 326 nM.

As for `C=CC(=O)N1CCN(c2nc(=O)n(-c3c(C)ccnc3C(C)C)c3nc(-c4ccc(F)cc4F)c(F)cc23)[C@@H](C)C1` (single isomer, unassigned) [Example 58-10-1], in experiment [1], the “Coupled exchange IC50 (5 min)” value is reported as 0.264 | nda μM. For the same compound, the IC50 in experiment [2] (Homo sapiens, MIA PaCa-2, 2 h) amounted to 257 nM.

Turning to `C=CC(=O)N1CCN(c2nc(=O)n(-c3c(C)cccc3C3CC3)c3nc(-c4c(O)cccc4F)c(F)cc23)[C@@H](C)C1` (single isomer, unassigned) [Example 58-13-2], the “Coupled exchange IC50 (5 min)” value in experiment [1] is listed as 0.26 | nda μM. Also, in experiment [2] (Homo sapiens, MIA PaCa-2, 2 h), the IC50 worked out at 371 nM.

As for `C=CC(=O)N1CCN(c2nc(=O)n(-c3c(C(C)C)ccnc3C)c3nc(-c4ccccc4F)c(F)cc23)[C@@H](C)C1` (single isomer, unassigned) [Example 58-16-2], the “Coupled exchange IC50 (5 min)” value in experiment [1] was 0.315 | nda μM. Further, the half-inhibitory concentration (IC50) in experiment [2] (Homo sapiens, MIA PaCa-2, 2 h) came to 317 nM.

On to `C=CC(=O)N1CCN(c2nc(=O)n(-c3ccccc3C(C)(C)C)c3nc(-c4ccccc4F)c(F)cc23)[C@@H](C)C1` (single isomer, unassigned) [Example 58-17-2], for which the “Coupled exchange IC50 (5 min)” value in experiment [1] is 0.849 | nda μM. Also, in experiment [2] (Homo sapiens, MIA PaCa-2, 2 h), the IC50 was 672 nM.

Turning to `C=CC(=O)N1CCN(c2nc(=O)n(-c3c(C4CC4)ccnc3C)c3nc(-c4c(O)cccc4F)c(F)cc23)[C@@H](C)C1` (single isomer, unassigned) [Example 58-19-2], the “Coupled exchange IC50 (5 min)” value in experiment [1] is on record as 0.226 | nda μM. In addition, the IC50 in experiment [2] (Homo sapiens, MIA PaCa-2, 2 h) worked out at 525 nM.

For `C=CC(=O)N1CCN(c2nc(=O)n(-c3c(C4CC4)ccnc3C)c3nc(-c4ccccc4F)c(F)cc23)[C@@H](C)C1` (single isomer, unassigned) [Example 58-20-2], in experiment [1], the “Coupled exchange IC50 (5 min)” value is listed as 0.807 | nda μM. Besides, in experiment [2] (Homo sapiens, MIA PaCa-2, 2 h), the IC50 is 410 nM.

As for `C=CC(=O)N1CCN(c2nc(=O)n(-c3c(F)cccc3C(C)C)c3nc(-c4c(O)cccc4F)c(F)cc23)[C@@H](C)C1` (single isomer, unassigned) [Example 59-2-1], the “Coupled exchange IC50 (5 min)” value in experiment [1] is recorded as 0.112 | nda μM. Also, the concentration for half-maximal inhibition (IC50) in experiment [2] (Homo sapiens, MIA PaCa-2, 2 h) was determined as 137 nM.

Take `C=CC(=O)N1CCN(c2nc(=O)n(-c3c(F)cccc3C(C)C)c3nc(-c4ccccc4F)c(F)cc23)[C@@H](C)C1` (single isomer, unassigned) [Example 59-3-1]: in experiment [1], the “Coupled exchange IC50 (5 min)” value was 0.128 | nda μM. Moreover, the IC50 in experiment [2] (Homo sapiens, MIA PaCa-2, 2 h) came to 343 nM.

As for `C=CC(=O)N1CCN(c2nc(=O)n(-c3c(C#N)cccc3C(C)C)c3nc(-c4ccccc4F)c(Cl)cc23)[C@@H](C)C1` (single isomer, unassigned) [Example 60-20-2], the “Coupled exchange IC50 (5 min)” value in experiment [1] is 0.024 | nda μM. Also, in experiment [2] (Homo sapiens, MIA PaCa-2, 2 h), the IC50 stood at 33 nM.

As to `C=CC(=O)N1CCN(c2nc(=O)n(-c3c(C)ncnc3C3CC3)c3nc(-c4ccccc4F)c(Cl)cc23)[C@@H](C)C1` (single isomer, unassigned) [Example 60-30-2], the “Coupled exchange IC50 (5 min)” value in experiment [1] is 0.108 | nda μM. The IC50 in experiment [2] (Homo sapiens, MIA PaCa-2, 2 h) came to 81 nM.

Take `C=CC(=O)N1CCN(c2nc(=O)n(-c3c(C)cccc3C(C)C)c3nc(-c4c(O)cccc4F)c(F)cc23)C[C@H]1C` (single isomer, unassigned) [Example 63-2]: the “Coupled exchange IC50 (5 min)” value in experiment [1] is reported as 0.311 | nda μM. Besides, in experiment [2] (Homo sapiens, MIA PaCa-2, 2 h), the IC50 came to 609 nM.

Consider `C=CC(=O)N1C[C@H](C)N(c2nc(=O)n(-c3c(C)cccc3C(C)C)c3nc(-c4c(O)cccc4F)c(F)cc23)[C@@H](C)C1` (single isomer, unassigned) [Example 63-3], for which, in experiment [1], the “Coupled exchange IC50 (5 min)” value was 0.059 | nda μM. For the same compound, the IC50 in experiment [2] (Homo sapiens, MIA PaCa-2, 2 h) amounted to 108 nM.

Regarding `C=CC(=O)N1CCN(c2nc(=O)n(-c3c(C)cccc3C(C)C)c3nc(-c4cc(F)c(F)cc4O)c(Cl)cc23)[C@@H](C)C1` (single isomer, unassigned) [Example 64-2], in experiment [1], the “Coupled exchange IC50 (5 min)” value is listed as 0.151 | nda μM. In addition, the 50% inhibitory concentration (IC50) in experiment [2] (Homo sapiens, MIA PaCa-2, 2 h) is 258 nM.

On to `C=CC(=O)N1CCN(c2nc(=O)n(-c3c(C)cccc3C(C)C)c3nc(-c4cccc(F)c4O)c(Cl)cc23)[C@@H](C)C1` (single isomer, unassigned) [Example 64-3], for which the “Coupled exchange IC50 (5 min)” value in experiment [1] is 0.189 | nda μM. For the same compound, in experiment [2] (Homo sapiens, MIA PaCa-2, 2 h), the IC50 was determined as 219 nM.

On to `C=CC(=O)N1CCN(c2nc(=O)n(-c3c(C)cccc3C(C)C)c3nc(-c4c(O)cccc4Cl)c(F)cc23)[C@@H](C)C1` (single isomer, unassigned) [Example 68-1-1], for which, in experiment [1], the “Coupled exchange IC50 (5 min)” value is on record as 0.084 | nda μM. Also, in experiment [2], the IC50 came to 128 nM.

For the compound `C=CC(=O)N1CCN(c2nc(=O)n(-c3c(C)cccc3C(C)C)c3nc(-c4c(O)cccc4Cl)c(F)cc23)[C@@H](C)C1` (single isomer, unassigned) [Example 68-1-2], the “Coupled exchange IC50 (5 min)” value in experiment [1] is recorded as 0.613 | nda μM. Also, the IC50 in experiment [2] came to 735 nM.
